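Assay format: 96-well plates, 48-hour exposure. TGI is the concentration that stops growth completely.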
Key:
Assay in all cases: NCI tumour cell line growth inhibition, 48 h
HOP-92 NSCLC = test system: HOP-92 NSCLC
A549 NSCLC = test system: A549 NSCLC
LXFL 529 NSCLC = test system: LXFL 529 NSCLC
786-0 renal = test system: 786-0 renal
K-562 leukemia = test system: K-562 leukemia
SNB-78 CNS = test system: SNB-78 CNS
M19-MEL melanoma = test system: M19-MEL melanoma
MALME-3M melanoma = test system: MALME-3M melanoma
SK-MEL-5 melanoma = test system: SK-MEL-5 melanoma
HL-60(TB) leukemia = test system: HL-60(TB) leukemia
SN12C renal = test system: SN12C renal
UO-31 renal = test system: UO-31 renal
UACC-62 melanoma = test system: UACC-62 melanoma
IGROV1 ovarian = test system: IGROV1 ovarian
ACHN renal = test system: ACHN renal
HCT-116 colon = test system: HCT-116 colon
NCI-H23 lung = test system: NCI-H23 lung
SK-MEL-2 melanoma = test system: SK-MEL-2 melanoma
SR leukemia = test system: SR leukemia
RPMI-8226 leukemia = test system: RPMI-8226 leukemia
SF-539 CNS = test system: SF-539 CNS
SK-OV-3 ovarian = test system: SK-OV-3 ovarian
SK-MEL-28 melanoma = test system: SK-MEL-28 melanoma
COLO 205 colon = test system: COLO 205 colon
NCI-H522 lung = test system: NCI-H522 lung
SW-620 colon = test system: SW-620 colon
CAKI-1 renal = test system: CAKI-1 renal
HCC-2998 colon = test system: HCC-2998 colon
NCI-H226 lung = test system: NCI-H226 lung
HCT-15 colon = test system: HCT-15 colon
HT29 colon = test system: HT29 colon
CCRF-CEM leukemia = test system: CCRF-CEM leukemia
M14 melanoma = test system: M14 melanoma
A498 renal = test system: A498 renal
OVCAR-8 ovarian = test system: OVCAR-8 ovarian
OVCAR-4 ovarian = test system: OVCAR-4 ovarian
SF-295 CNS = test system: SF-295 CNS
NCI-H460 lung = test system: NCI-H460 lung
DLD-1 colon = test system: DLD-1 colon
SF-268 CNS = test system: SF-268 CNS
HOP-18 NSCLC = test system: HOP-18 NSCLC
KM12 colon = test system: KM12 colon
XF 498 CNS = test system: XF 498 CNS
OVCAR-5 ovarian = test system: OVCAR-5 ovarian
SNB-75 CNS = test system: SNB-75 CNS
HOP-62 NSCLC = test system: HOP-62 NSCLC
EKVX NSCLC = test system: EKVX NSCLC
TK-10 renal = test system: TK-10 renal
U251 CNS = test system: U251 CNS
LOX IMVI melanoma = test system: LOX IMVI melanoma
UACC-257 melanoma = test system: UACC-257 melanoma
MOLT-4 leukemia = test system: MOLT-4 leukemia
KM20L2 colon = test system: KM20L2 colon
DMS 273 small cell lung = test system: DMS 273 small cell lung
SNB-19 CNS = test system: SNB-19 CNS
DMS 114 small cell lung = test system: DMS 114 small cell lung
OVCAR-3 ovarian = test system: OVCAR-3 ovarian
RXF 393 renal = test system: RXF 393 renal

## O=C(Cc1ccccc1)N/N=C(/c1nc2ccc([N+](=O)[O-])cc2[nH]c1=O)C(O)c1ccccc1Cl (stereo not given)
HOP-92 NSCLC
  TGI: > 100 µM
A549 NSCLC
  TGI: > 100 µM
LXFL 529 NSCLC
  TGI: > 100 µM
786-0 renal
  TGI: > 100 µM
K-562 leukemia
  TGI: > 100 µM
SNB-78 CNS
  TGI: > 100 µM
M19-MEL melanoma
  TGI: > 100 µM
MALME-3M melanoma
  TGI: > 100 µM
SK-MEL-5 melanoma
  TGI: > 100 µM
HL-60(TB) leukemia
  TGI: > 100 µM
SN12C renal
  TGI: > 100 µM
UO-31 renal
  TGI: > 100 µM
UACC-62 melanoma
  TGI: > 100 µM
IGROV1 ovarian
  TGI: > 100 µM
ACHN renal
  TGI: > 100 µM
HCT-116 colon
  TGI: > 100 µM
NCI-H23 lung
  TGI: > 100 µM
SK-MEL-2 melanoma
  TGI: > 100 µM
SR leukemia
  TGI: > 100 µM
RPMI-8226 leukemia
  TGI: > 100 µM
SF-539 CNS
  TGI: > 100 µM
SK-OV-3 ovarian
  TGI: > 100 µM
SK-MEL-28 melanoma
  TGI: > 100 µM
COLO 205 colon
  TGI: > 100 µM
NCI-H522 lung
  TGI: > 100 µM
SW-620 colon
  TGI: > 100 µM
CAKI-1 renal
  TGI: > 100 µM
HCC-2998 colon
  TGI: > 100 µM
NCI-H226 lung
  TGI: > 100 µM
HCT-15 colon
  TGI: > 100 µM
HT29 colon
  TGI: > 100 µM
CCRF-CEM leukemia
  TGI: > 100 µM
M14 melanoma
  TGI: > 100 µM
A498 renal
  TGI: > 100 µM
OVCAR-8 ovarian
  TGI: > 100 µM
OVCAR-4 ovarian
  TGI: > 100 µM
SF-295 CNS
  TGI: > 100 µM
NCI-H460 lung
  TGI: > 100 µM
DLD-1 colon
  TGI: > 100 µM
SF-268 CNS
  TGI: > 100 µM
HOP-18 NSCLC
  TGI: > 100 µM
KM12 colon
  TGI: > 100 µM
XF 498 CNS
  TGI: > 100 µM
OVCAR-5 ovarian
  TGI: > 100 µM
SNB-75 CNS
  TGI: > 100 µM
HOP-62 NSCLC
  TGI: > 100 µM
EKVX NSCLC
  TGI: > 100 µM
TK-10 renal
  TGI: > 100 µM
U251 CNS
  TGI: > 100 µM
LOX IMVI melanoma
  TGI: > 100 µM
UACC-257 melanoma
  TGI: > 100 µM
MOLT-4 leukemia
  TGI: > 100 µM

## O=C(Nc1ccccc1)c1cccc([N+](=O)[O-])c1
HOP-92 NSCLC
  TGI: > 100 µM
A549 NSCLC
  TGI: > 100 µM
786-0 renal
  TGI: > 100 µM
K-562 leukemia
  TGI: > 100 µM
SNB-78 CNS
  TGI: > 100 µM
M19-MEL melanoma
  TGI: > 100 µM
MALME-3M melanoma
  TGI: > 100 µM
SK-MEL-5 melanoma
  TGI: > 100 µM
SN12C renal
  TGI: > 100 µM
UACC-62 melanoma
  TGI: > 100 µM
IGROV1 ovarian
  TGI: > 100 µM
ACHN renal
  TGI: > 100 µM
KM20L2 colon
  TGI: > 100 µM
HCT-116 colon
  TGI: > 100 µM
DMS 273 small cell lung
  TGI: > 100 µM
RPMI-8226 leukemia
  TGI: > 100 µM
SF-539 CNS
  TGI: > 100 µM
SK-MEL-28 melanoma
  TGI: > 100 µM
COLO 205 colon
  TGI: > 100 µM
SW-620 colon
  TGI: > 100 µM
CAKI-1 renal
  TGI: > 100 µM
SNB-19 CNS
  TGI: > 100 µM
HCC-2998 colon
  TGI: > 100 µM
HCT-15 colon
  TGI: > 100 µM
HT29 colon
  TGI: > 100 µM
DMS 114 small cell lung
  TGI: > 100 µM
CCRF-CEM leukemia
  TGI: > 100 µM
A498 renal
  TGI: > 100 µM
OVCAR-8 ovarian
  TGI: > 100 µM
SF-268 CNS
  TGI: > 100 µM
HOP-18 NSCLC
  TGI: > 100 µM
XF 498 CNS
  TGI: > 100 µM
SNB-75 CNS
  TGI: > 100 µM
HOP-62 NSCLC
  TGI: > 100 µM
EKVX NSCLC
  TGI: > 100 µM
U251 CNS
  TGI: > 100 µM
OVCAR-3 ovarian
  TGI: > 100 µM
MOLT-4 leukemia
  TGI: > 100 µM

## CN(C)CCN(C)C(=O)C1CCCN1C(=O)OCc1ccccc1 (stereo not given)
HOP-92 NSCLC
  TGI: > 100 µM
A549 NSCLC
  TGI: > 100 µM
LXFL 529 NSCLC
  TGI: > 100 µM
786-0 renal
  TGI: > 100 µM
K-562 leukemia
  TGI: > 100 µM
SNB-78 CNS
  TGI: > 100 µM
M19-MEL melanoma
  TGI: > 100 µM
MALME-3M melanoma
  TGI: > 100 µM
SK-MEL-5 melanoma
  TGI: > 100 µM
HL-60(TB) leukemia
  TGI: > 100 µM
SN12C renal
  TGI: > 100 µM
UO-31 renal
  TGI: > 100 µM
UACC-62 melanoma
  TGI: > 100 µM
IGROV1 ovarian
  TGI: > 100 µM
ACHN renal
  TGI: > 100 µM
KM20L2 colon
  TGI: > 100 µM
HCT-116 colon
  TGI: > 100 µM
NCI-H23 lung
  TGI: > 100 µM
SK-MEL-2 melanoma
  TGI: > 100 µM
DMS 273 small cell lung
  TGI: > 100 µM
SR leukemia
  TGI: > 100 µM
RPMI-8226 leukemia
  TGI: > 100 µM
SF-539 CNS
  TGI: > 100 µM
SK-OV-3 ovarian
  TGI: > 100 µM
SK-MEL-28 melanoma
  TGI: > 100 µM
COLO 205 colon
  TGI: > 100 µM
NCI-H522 lung
  TGI: 24 µM
SW-620 colon
  TGI: > 100 µM
RXF 393 renal
  TGI: > 100 µM
SNB-19 CNS
  TGI: > 100 µM
HCC-2998 colon
  TGI: > 100 µM
NCI-H226 lung
  TGI: > 100 µM
HCT-15 colon
  TGI: > 100 µM
HT29 colon
  TGI: > 100 µM
DMS 114 small cell lung
  TGI: > 100 µM
CCRF-CEM leukemia
  TGI: 48.7 µM
M14 melanoma
  TGI: > 100 µM
A498 renal
  TGI: > 100 µM
OVCAR-8 ovarian
  TGI: > 100 µM
OVCAR-4 ovarian
  TGI: > 100 µM
SF-295 CNS
  TGI: > 100 µM
NCI-H460 lung
  TGI: > 100 µM
DLD-1 colon
  TGI: > 100 µM
SF-268 CNS
  TGI: > 100 µM
XF 498 CNS
  TGI: > 100 µM
OVCAR-5 ovarian
  TGI: > 100 µM
SNB-75 CNS
  TGI: > 100 µM
HOP-62 NSCLC
  TGI: > 100 µM
EKVX NSCLC
  TGI: > 100 µM
TK-10 renal
  TGI: > 100 µM
U251 CNS
  TGI: > 100 µM
OVCAR-3 ovarian
  TGI: > 100 µM
LOX IMVI melanoma
  TGI: > 100 µM
UACC-257 melanoma
  TGI: > 100 µM
MOLT-4 leukemia
  TGI: > 100 µM

## O=P(CCOc1ccccc1OCCP(=O)(c1ccccc1)c1ccc2c(c1)OCCOCCOCCOCCO2)(c1ccccc1)c1ccc2c(c1)OCCOCCOCCOCCO2 (stereo not given)
HOP-92 NSCLC
  TGI: > 100 µM
A549 NSCLC
  TGI: > 100 µM
LXFL 529 NSCLC
  TGI: > 100 µM
786-0 renal
  TGI: > 100 µM
K-562 leukemia
  TGI: > 100 µM
SNB-78 CNS
  TGI: > 100 µM
M19-MEL melanoma
  TGI: > 100 µM
MALME-3M melanoma
  TGI: > 100 µM
SK-MEL-5 melanoma
  TGI: > 100 µM
HL-60(TB) leukemia
  TGI: > 100 µM
SN12C renal
  TGI: > 100 µM
UO-31 renal
  TGI: > 100 µM
UACC-62 melanoma
  TGI: > 100 µM
IGROV1 ovarian
  TGI: > 100 µM
ACHN renal
  TGI: > 100 µM
KM20L2 colon
  TGI: > 100 µM
HCT-116 colon
  TGI: > 100 µM
NCI-H23 lung
  TGI: > 100 µM
SK-MEL-2 melanoma
  TGI: > 100 µM
DMS 273 small cell lung
  TGI: > 100 µM
SR leukemia
  TGI: > 100 µM
RPMI-8226 leukemia
  TGI: > 100 µM
SF-539 CNS
  TGI: > 100 µM
SK-OV-3 ovarian
  TGI: > 100 µM
SK-MEL-28 melanoma
  TGI: > 100 µM
COLO 205 colon
  TGI: > 100 µM
NCI-H522 lung
  TGI: > 100 µM
SW-620 colon
  TGI: > 100 µM
RXF 393 renal
  TGI: > 100 µM
SNB-19 CNS
  TGI: > 100 µM
HCC-2998 colon
  TGI: > 100 µM
NCI-H226 lung
  TGI: > 100 µM
HCT-15 colon
  TGI: > 100 µM
HT29 colon
  TGI: > 100 µM
DMS 114 small cell lung
  TGI: > 100 µM
CCRF-CEM leukemia
  TGI: > 100 µM
M14 melanoma
  TGI: > 100 µM
A498 renal
  TGI: > 100 µM
OVCAR-8 ovarian
  TGI: > 100 µM
OVCAR-4 ovarian
  TGI: > 100 µM
SF-295 CNS
  TGI: > 100 µM
NCI-H460 lung
  TGI: > 100 µM
DLD-1 colon
  TGI: > 100 µM
SF-268 CNS
  TGI: > 100 µM
XF 498 CNS
  TGI: > 100 µM
OVCAR-5 ovarian
  TGI: > 100 µM
SNB-75 CNS
  TGI: > 100 µM
HOP-62 NSCLC
  TGI: > 100 µM
EKVX NSCLC
  TGI: > 100 µM
TK-10 renal
  TGI: > 100 µM
U251 CNS
  TGI: > 100 µM
OVCAR-3 ovarian
  TGI: > 100 µM
LOX IMVI melanoma
  TGI: > 100 µM
UACC-257 melanoma
  TGI: > 100 µM
MOLT-4 leukemia
  TGI: > 100 µM

Source: PubChem BioAssay (NCI)
